Source: patent publication US10765114B2, “4-amino-6-(pyridyl and 2-substitutedphenyl)-picolinates and 6-amino-2-(pyridyl and 2-substitutedphenyl)-pyrimidine-4-carboxylates and their use as herbicides” (Dow AgroSciences LLC, priority 2013, dated 2020)

test system: Key Broadleaf Weed and Crop Species; assay: Post-Emergent Test II (Table 5); assay type: in vivo; details: Abutilon theophrasti, post-emergence, 336 h, ABUTH: velvetleaf (Abutilon theophrasti), application rate 70 (kg ai/ha; footnote: g ai/ha), read-out: Visual Growth Reduction (%) 14 Days After Application ABUTH
Summary of the method: (§1)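 Post-emergence greenhouse spray, 1st-2nd true leaf stage; track sprayer, 187 L/ha; acetone/DMSO stock diluted in aqueous acetone/IPA/DMSO with Atplus 411F and Triton X-155; rates 1× to 1/16×; subirrigated; visual injury 0 (none) to 100% (complete kill) at 14 days.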

Q: For `COC(=O)c1nc(-c2ccc(OC(F)F)nc2)c(F)c(N)c1Cl` [Compound 71], which pest or weed control at 70 g/ha is on record?
A: Its pest or weed control at 70 g/ha is 85 to 94%.

same assay, conditions: Abutilon theophrasti, post-emergence, 336 h, ABUTH: velvetleaf (Abutilon theophrasti), application rate 140 (kg ai/ha; footnote: g ai/ha), read-out: Visual Growth Reduction (%) 14 Days After Application ABUTH

Q: For `COC(=O)c1nc(-c2ccc(OC(F)F)nc2)c(F)c(N)c1Cl` [Compound 71], which pest or weed control at 140 g/ha is on record?
A: Its pest or weed control at 140 g/ha is 85 to 94%.

same assay, conditions: Amaranthus retroflexus, post-emergence, 336 h, AMARE: redroot pigweed (Amaranthus retroflexus), application rate 70 (kg ai/ha; footnote: g ai/ha), read-out: Visual Growth Reduction (%) 14 Days After Application AMARE

Q: For `COC(=O)c1nc(-c2ccc(OC(F)F)nc2)c(F)c(N)c1Cl` [Compound 71], which pest or weed control at 70 g/ha is on record?
A: The pest or weed control at 70 g/ha was 0 to 29%.

same assay, conditions: Amaranthus retroflexus, post-emergence, 336 h, AMARE: redroot pigweed (Amaranthus retroflexus), application rate 140 (kg ai/ha; footnote: g ai/ha), read-out: Visual Growth Reduction (%) 14 Days After Application AMARE

Q: With `COC(=O)c1nc(-c2ccc(OC(F)F)nc2)c(F)c(N)c1Cl` [Compound 71] as the compound, how does the pest or weed control at 140 g/ha read?
A: The pest or weed control at 140 g/ha was 0 to 29%.

same assay, conditions: Brassica napus, post-emergence, 336 h, BRSSS: oilseed rape, canola (Brassica napus), application rate 70 (kg ai/ha; footnote: g ai/ha), read-out: Visual Growth Reduction (%) 14 Days After Application BRSSS

Q: For `COC(=O)c1nc(-c2ccc(OC(F)F)nc2)c(F)c(N)c1Cl` [Compound 71], which pest or weed control at 70 g/ha is on record?
A: The pest or weed control at 70 g/ha was 30 to 44%.

same assay, conditions: Brassica napus, post-emergence, 336 h, BRSSS: oilseed rape, canola (Brassica napus), application rate 140 (kg ai/ha; footnote: g ai/ha), read-out: Visual Growth Reduction (%) 14 Days After Application BRSSS

Q: For `COC(=O)c1nc(-c2ccc(OC(F)F)nc2)c(F)c(N)c1Cl` [Compound 71], which pest or weed control at 140 g/ha is on record?
A: The pest or weed control at 140 g/ha was 45 to 59%.

same assay, conditions: Chenopodium album, post-emergence, 336 h, CHEAL: lambsquarters (Chenopodium album), application rate 70 (kg ai/ha; footnote: g ai/ha), read-out: Visual Growth Reduction (%) 14 Days After Application CHEAL

Q: For `COC(=O)c1nc(-c2ccc(OC(F)F)nc2)c(F)c(N)c1Cl` [Compound 71], which pest or weed control at 70 g/ha is on record?
A: The pest or weed control at 70 g/ha was 85 to 94%.

same assay, conditions: Chenopodium album, post-emergence, 336 h, CHEAL: lambsquarters (Chenopodium album), application rate 140 (kg ai/ha; footnote: g ai/ha), read-out: Visual Growth Reduction (%) 14 Days After Application CHEAL

Q: For `COC(=O)c1nc(-c2ccc(OC(F)F)nc2)c(F)c(N)c1Cl` [Compound 71], which pest or weed control at 140 g/ha is on record?
A: Its pest or weed control at 140 g/ha is 85 to 94%.

same assay, conditions: Euphorbia heterophylla, post-emergence, 336 h, EPHHL: wild poinsettia (Euphorbia heterophylla), application rate 70 (kg ai/ha; footnote: g ai/ha), read-out: Visual Growth Reduction (%) 14 Days After Application EPHHL

Q: For `COC(=O)c1nc(-c2ccc(OC(F)F)nc2)c(F)c(N)c1Cl` [Compound 71], which pest or weed control at 70 g/ha is on record?
A: The pest or weed control at 70 g/ha was 95 to 100%.

same assay, conditions: Euphorbia heterophylla, post-emergence, 336 h, EPHHL: wild poinsettia (Euphorbia heterophylla), application rate 140 (kg ai/ha; footnote: g ai/ha), read-out: Visual Growth Reduction (%) 14 Days After Application EPHHL

Q: With `COC(=O)c1nc(-c2ccc(OC(F)F)nc2)c(F)c(N)c1Cl` [Compound 71] as the compound, how does the pest or weed control at 140 g/ha read?
A: The pest or weed control at 140 g/ha was 95 to 100%.

same assay, conditions: Helianthus annuus, post-emergence, 336 h, HELAN: sunflower (Helianthus annuus), application rate 70 (kg ai/ha; footnote: g ai/ha), read-out: Visual Growth Reduction (%) 14 Days After Application HELAN

Q: With `COC(=O)c1nc(-c2ccc(OC(F)F)nc2)c(F)c(N)c1Cl` [Compound 71] as the compound, how does the pest or weed control at 70 g/ha read?
A: Its pest or weed control at 70 g/ha is 85 to 94%.

same assay, conditions: Helianthus annuus, post-emergence, 336 h, HELAN: sunflower (Helianthus annuus), application rate 140 (kg ai/ha; footnote: g ai/ha), read-out: Visual Growth Reduction (%) 14 Days After Application HELAN

Q: With `COC(=O)c1nc(-c2ccc(OC(F)F)nc2)c(F)c(N)c1Cl` [Compound 71] as the compound, how does the pest or weed control at 140 g/ha read?
A: Its pest or weed control at 140 g/ha is 85 to 94%.

same assay, conditions: Viola tricolor, post-emergence, 336 h, VIOTR: wild pansy (Viola tricolor), application rate 70 (kg ai/ha; footnote: g ai/ha), read-out: Visual Growth Reduction (%) 14 Days After Application VIOTR

Q: With `COC(=O)c1nc(-c2ccc(OC(F)F)nc2)c(F)c(N)c1Cl` [Compound 71] as the compound, how does the pest or weed control at 70 g/ha read?
A: Its pest or weed control at 70 g/ha is 0 to 29%.

same assay, conditions: Viola tricolor, post-emergence, 336 h, VIOTR: wild pansy (Viola tricolor), application rate 140 (kg ai/ha; footnote: g ai/ha), read-out: Visual Growth Reduction (%) 14 Days After Application VIOTR

Q: For `COC(=O)c1nc(-c2ccc(OC(F)F)nc2)c(F)c(N)c1Cl` [Compound 71], which pest or weed control at 140 g/ha is on record?
A: The pest or weed control at 140 g/ha was 0 to 29%.

test system: Key Grass and Sedge Weeds as well as Grass Crops; assay: Post-Emergent Test II (Table 6); assay type: in vivo; details: post-emergence, 336 h, CYPSS, 70 g ai/ha, 14 days after application, read-out: Visual Growth Reduction (%) 14 Days After Application CYPSS
Summary of the method: as §1

Q: Which pest or weed control at 70 g/ha does the source give for `COC(=O)c1nc(-c2ccc(OC(F)F)nc2)c(F)c(N)c1Cl` [Compound 71] here?
A: Its pest or weed control at 70 g/ha is 0 to 29%.

same assay, conditions: post-emergence, 336 h, CYPSS, 140 g ai/ha, 14 days after application, read-out: Visual Growth Reduction (%) 14 Days After Application CYPSS

Q: For `COC(=O)c1nc(-c2ccc(OC(F)F)nc2)c(F)c(N)c1Cl` [Compound 71], which pest or weed control at 140 g/ha is on record?
A: The pest or weed control at 140 g/ha was 45 to 59%.

same assay, conditions: post-emergence, 336 h, DIGSA: crabgrass (Digitaria sanguinalis), 70 g ai/ha, 14 days after application, read-out: Visual Growth Reduction (%) 14 Days After Application DIGSA

Q: For `COC(=O)c1nc(-c2ccc(OC(F)F)nc2)c(F)c(N)c1Cl` [Compound 71], which pest or weed control at 70 g/ha is on record?
A: Its pest or weed control at 70 g/ha is 75 to 84%.

same assay, conditions: post-emergence, 336 h, DIGSA: crabgrass (Digitaria sanguinalis), 140 g ai/ha, 14 days after application, read-out: Visual Growth Reduction (%) 14 Days After Application DIGSA

Q: With `COC(=O)c1nc(-c2ccc(OC(F)F)nc2)c(F)c(N)c1Cl` [Compound 71] as the compound, how does the pest or weed control at 140 g/ha read?
A: The pest or weed control at 140 g/ha was 60 to 74%.

same assay, conditions: post-emergence, 336 h, ECHSS, 70 g ai/ha, 14 days after application, read-out: Visual Growth Reduction (%) 14 Days After Application ECHSS

Q: Which pest or weed control at 70 g/ha does the source give for `COC(=O)c1nc(-c2ccc(OC(F)F)nc2)c(F)c(N)c1Cl` [Compound 71] here?
A: Its pest or weed control at 70 g/ha is 60 to 74%.

same assay, conditions: post-emergence, 336 h, ECHSS, 140 g ai/ha, 14 days after application, read-out: Visual Growth Reduction (%) 14 Days After Application ECHSS

Q: Which pest or weed control at 140 g/ha does the source give for `COC(=O)c1nc(-c2ccc(OC(F)F)nc2)c(F)c(N)c1Cl` [Compound 71] here?
A: The pest or weed control at 140 g/ha was 75 to 84%.

same assay, conditions: post-emergence, 336 h, ORYSS (crop), 70 g ai/ha, 14 days after application, read-out: Visual Growth Reduction (%) 14 Days After Application ORYSS

Q: With `COC(=O)c1nc(-c2ccc(OC(F)F)nc2)c(F)c(N)c1Cl` [Compound 71] as the compound, how does the pest or weed control at 70 g/ha read?
A: Its pest or weed control at 70 g/ha is 0 to 29%.

same assay, conditions: post-emergence, 336 h, ORYSS (crop), 140 g ai/ha, 14 days after application, read-out: Visual Growth Reduction (%) 14 Days After Application ORYSS

Q: With `COC(=O)c1nc(-c2ccc(OC(F)F)nc2)c(F)c(N)c1Cl` [Compound 71] as the compound, how does the pest or weed control at 140 g/ha read?
A: Its pest or weed control at 140 g/ha is 0 to 29%.

same assay, conditions: post-emergence, 336 h, SETFA: giant foxtail (Setaria faberi), 70 g ai/ha, 14 days after application, read-out: Visual Growth Reduction (%) 14 Days After Application SETFA

Q: With `COC(=O)c1nc(-c2ccc(OC(F)F)nc2)c(F)c(N)c1Cl` [Compound 71] as the compound, how does the pest or weed control at 70 g/ha read?
A: The pest or weed control at 70 g/ha was 75 to 84%.

same assay, conditions: post-emergence, 336 h, SETFA: giant foxtail (Setaria faberi), 140 g ai/ha, 14 days after application, read-out: Visual Growth Reduction (%) 14 Days After Application SETFA

Q: Which pest or weed control at 140 g/ha does the source give for `COC(=O)c1nc(-c2ccc(OC(F)F)nc2)c(F)c(N)c1Cl` [Compound 71] here?
A: The pest or weed control at 140 g/ha was 85 to 94%.

same assay, conditions: post-emergence, 336 h, SORVU: grain sorghum (Sorghum vulgare), 70 g ai/ha, 14 days after application, read-out: Visual Growth Reduction (%) 14 Days After Application SORVU

Q: With `COC(=O)c1nc(-c2ccc(OC(F)F)nc2)c(F)c(N)c1Cl` [Compound 71] as the compound, how does the pest or weed control at 70 g/ha read?
A: Its pest or weed control at 70 g/ha is 60 to 74%.

same assay, conditions: post-emergence, 336 h, SORVU: grain sorghum (Sorghum vulgare), 140 g ai/ha, 14 days after application, read-out: Visual Growth Reduction (%) 14 Days After Application SORVU

Q: With `COC(=O)c1nc(-c2ccc(OC(F)F)nc2)c(F)c(N)c1Cl` [Compound 71] as the compound, how does the pest or weed control at 140 g/ha read?
A: The pest or weed control at 140 g/ha was 75 to 84%.

same assay, conditions: post-emergence, 336 h, TRZSS (crop), 70 g ai/ha, 14 days after application, read-out: Visual Growth Reduction (%) 14 Days After Application TRZSS

Q: For `COC(=O)c1nc(-c2ccc(OC(F)F)nc2)c(F)c(N)c1Cl` [Compound 71], which pest or weed control at 70 g/ha is on record?
A: The pest or weed control at 70 g/ha was 45 to 59%.

same assay, conditions: post-emergence, 336 h, TRZSS (crop), 140 g ai/ha, 14 days after application, read-out: Visual Growth Reduction (%) 14 Days After Application TRZSS

Q: For `COC(=O)c1nc(-c2ccc(OC(F)F)nc2)c(F)c(N)c1Cl` [Compound 71], which pest or weed control at 140 g/ha is on record?
A: Its pest or weed control at 140 g/ha is 45 to 59%.

same assay, conditions: post-emergence, 336 h, ZEAMX: maize, corn (Zea mays), 70 g ai/ha, 14 days after application, read-out: Visual Growth Reduction (%) 14 Days After Application ZEAMX

Q: With `COC(=O)c1nc(-c2ccc(OC(F)F)nc2)c(F)c(N)c1Cl` [Compound 71] as the compound, how does the pest or weed control at 70 g/ha read?
A: The pest or weed control at 70 g/ha was 0 to 29%.

same assay, conditions: post-emergence, 336 h, ZEAMX: maize, corn (Zea mays), 140 g ai/ha, 14 days after application, read-out: Visual Growth Reduction (%) 14 Days After Application ZEAMX

Q: For `COC(=O)c1nc(-c2ccc(OC(F)F)nc2)c(F)c(N)c1Cl` [Compound 71], which pest or weed control at 140 g/ha is on record?
A: The pest or weed control at 140 g/ha was 60 to 74%.

test system: not given; assay: not given; details: not given

Q: For `COC(=O)c1nc(-c2ccc(OC(F)F)nc2)c(F)c(N)c1Cl` [Compound 71], which melting point is on record?
A: The melting point was 134 to 136 °C.
